Experimental findings from US20230017045A1, “PYRIDINE AND PYRIMIDINE CARBOXYLATE HERBICIDES AND METHODS OF USE THEREOF” (Dow AgroSciences LLC, priority 2017, published 2023) are described below.

The subject of this assay is test plant species. In words: Post-emergent herbicidal activity test (greenhouse, foliar spray, visual growth reduction). Format: in vivo. The note with it: post-emergence, 336 h, 140 g ai/ha, 14 days after application. On the procedure: Post-emergent Test: Seeds or nutlets of the desired test plant species were planted in Sun Gro Metro-Mix® 360 planting mixture, which typically has a pH of 6.0 to 6.8 and an organic matter content of about 30 percent, in plastic pots with a surface area of 64 square centimeters. In some aspects, to ensure good germination and healthy plants, a fungicide treatment and/or other chemical or physical treatment was applied. The plants were grown for 7-21 d in a greenhouse with an approximate 15 h photoperiod which was maintained at 23-29° C. during the day and 22-28° C. during the night. Nutrients and water were added on a regular basis and supplemental lighting was provided with overhead metal halide 1000-Watt lamps as necessary. Plants were used for testing when they reached the first or second true leaf stage. A weighed amount, determined by the highest rate to be tested, of each test compound was placed in a 25 mL glass vial and was dissolved in 4 mL of a 97:3 v/v mixture of acetone and DMSO to obtain concentrated stock solutions. […] The concentrated stock solutions obtained were diluted with 20 mL of an aqueous mixture containing acetone, water, isopropyl alcohol, DMSO, […] crop oil concentrate, and X-77 surfactant in a 48.5:39:10:1.5:1.0:0.02 v/v ratio to obtain spray solutions containing the application rate. Compound requirements are based upon a 12 mL application volume at a rate of 187 liters per hectare (L/ha). Formulated compounds were applied to the plant material with an overhead Mandel track sprayer equipped with […] nozzles calibrated to deliver 187 L/ha over an application area of 0.64 square meters at a spray height of 18 inches (43 cm) above the average plant canopy height. Control plants were sprayed in the same manner with the solvent blank. The treated plants and control plants were placed in a greenhouse as described above and watered by subirrigation to prevent wash-off of the test compounds. After 14 d, the condition of the test plants as compared with that of the nontreated and control plants was determined visually and scored on a scale of 0 to 100 percent where 0 corresponds to no injury and 100 corresponds to complete control. In the reporting of the results, Table A: Percent Growth Reduction Conversion Table was used.

Where [1] appears, read: ALOMY: blackgrass (Alopecurus myosuroides), read-out: Visual Growth Reduction (%) 14 Days After Application, ALOMY.
The mark [2] stands for this setting: AVEFA: wild oat (Avena fatua), read-out: Visual Growth Reduction (%) 14 Days After Application, AVEFA.
The mark [3] stands for this setting: CHEAL: lambsquarters (Chenopodium album), read-out: Visual Growth Reduction (%) 14 Days After Application, CHEAL.
Where [4] appears, read: CIRAR: canada thistle (Cirsium arvense), read-out: Visual Growth Reduction (%) 14 Days After Application, CIRAR.
[5] abbreviates: CYPES: yellow nutsedge (Cyperus esculentus), read-out: Visual Growth Reduction (%) 14 Days After Application, CYPES.
Setting [6] is: DIGSA: crabgrass (Digitaria sanguinalis), read-out: Visual Growth Reduction (%) 14 Days After Application, DIGSA.
Setting [7] is: ECHCG: barnyardgrass (Echinochloa crus-galli), read-out: Visual Growth Reduction (%) 14 Days After Application, ECHCG.
Setting [8] is: IPOHE: ivy-leaf morning glory (Ipomoea hederacea), read-out: Visual Growth Reduction (%) 14 Days After Application, IPOHE.
Setting [9] is: ORYSA: rice (Oryza sativa), read-out: Visual Growth Reduction (%) 14 Days After Application, ORYSA.
Where [10] appears, read: SETFA: giant foxtail (Setaria faberi), read-out: Visual Growth Reduction (%) 14 Days After Application, SETFA.
Setting [11] is: SORVU: grain sorghum (Sorghum vulgare), read-out: Visual Growth Reduction (%) 14 Days After Application, SORVU.
The mark [12] stands for this setting: STEME: common chickweed (Stellaria media), read-out: Visual Growth Reduction (%) 14 Days After Application, STEME.
[13] abbreviates: TRZAS: wheat, spring (Triticum aestivum), read-out: Visual Growth Reduction (%) 14 Days After Application, TRZAS.
Setting [14] is: AMARE: redroot pigweed (Amaranthus retroflexus), read-out: Visual Growth Reduction (%) 14 Days After Application, AMARE.
Where [15] appears, read: KCHSC: kochia (Bassia scoparia), read-out: Visual Growth Reduction (%) 14 Days After Application, KCHSC.

Read-outs that look alike come from different tables or passages of the source.

Consider `CCOC(=O)c1nc(-c2ccc(Cl)c(OC)c2F)cc(OCC)c1N` [F77, ethyl 3-amino-6-(4-chloro-2-fluoro-3-methoxyphenyl)-4-ethoxypicolinate], for which the pest or weed control at 140 g/ha runs as follows: under setting [1], 0 to 29%; under setting [2], 0 to 29%; under setting [3], 45 to 59%; under setting [4], 0 to 29%; under setting [5], 0 to 29%; under setting [6], 0 to 29%. Besides, the pest or weed control at 140 g/ha was in the range of 0 to 29% under setting [7]; 0 to 29% under setting [8]; 0 to 29% under setting [9]; 0 to 29% under setting [10]; 0 to 29% under setting [11]; 0 to 29% under setting [12]. In addition, the pest or weed control at 140 g/ha under setting [13] is 0 to 29%.
Take `COc1c(Cl)ccc(-c2ccc(Cl)c(C(=O)O)n2)c1F` [F78, 3-chloro-6-(4-chloro-2-fluoro-3-methoxyphenyl)picolinic acid]: the pest or weed control at 140 g/ha reads like this: under setting [1], 0 to 29%; under setting [14], 45 to 59%; under setting [2], 0 to 29%; under setting [3], 75 to 84%; under setting [4], 60 to 74%; under setting [5], 0 to 29%. In addition, the pest or weed control at 140 g/ha runs as follows: under setting [6], 0 to 29%; under setting [7], 0 to 29%; under setting [8], 45 to 59%; under setting [9], 0 to 29%; under setting [10], 0 to 29%; under setting [11], 0 to 29%. For the same compound, the pest or weed control at 140 g/ha reads like this: under setting [12], 30 to 44%; under setting [13], 0 to 29%.
Take `O=C(OCc1cccnc1)c1nc(-c2ccc(C(F)(F)F)cc2Cl)ccc1Cl` [F79, Pyridin-3-ylmethyl 3-chloro-6-(2-chloro-4-(trifluoromethyl)phenyl)picolinate]: the pest or weed control at 140 g/ha under setting [1] was in the range of 60 to 74%; the pest or weed control at 140 g/ha under setting [14] lay in the range of 95 to 100%; the pest or weed control at 140 g/ha under setting [2] was in the range of 75 to 84%; the pest or weed control at 140 g/ha under setting [3] was in the range of 95 to 100%; the pest or weed control at 140 g/ha under setting [4] is 85 to 94%; the pest or weed control at 140 g/ha under setting [5] lay within 0 to 29%. Besides, the pest or weed control at 140 g/ha is, setting by setting: under setting [6], 95 to 100%; under setting [7], 95 to 100%; under setting [8], 95 to 100%; under setting [15], 95 to 100%; under setting [9], 30 to 44%; under setting [10], 95 to 100%. The pest or weed control at 140 g/ha under setting [11] was 95 to 100%, the pest or weed control at 140 g/ha under setting [12] lay in the range of 0 to 29% and the pest or weed control at 140 g/ha under setting [13] is 75 to 84%.
Turning to `COC(=O)c1nc(-c2ccc(Cl)cc2)cc(Cl)c1Cl` [F80, Methyl 3,4-dichloro-6-(4-chlorophenyl) picolinate], the pest or weed control at 140 g/ha runs as follows: under setting [1], 0 to 29%; under setting [14], 60 to 74%; under setting [2], 0 to 29%; under setting [3], 30 to 44%; under setting [4], 0 to 29%; under setting [5], 0 to 29%. Besides, the pest or weed control at 140 g/ha by setting is: under setting [6], 0 to 29%; under setting [7], 0 to 29%; under setting [8], 45 to 59%; under setting [9], 0 to 29%; under setting [10], 0 to 29%; under setting [11], 0 to 29%. The pest or weed control at 140 g/ha under setting [12] was 0 to 29% and the pest or weed control at 140 g/ha under setting [13] lay in the range of 0 to 29%.
As to `O=C(OCc1ccncc1)c1nc(-c2ccc(C(F)(F)F)cc2Cl)ccc1Cl` [F81, Pyridin-4-ylmethyl 3-chloro-6-(2-chloro-4-(trifluoromethyl)phenyl)picolinate], the pest or weed control at 140 g/ha is, setting by setting: under setting [1], 60 to 74%; under setting [14], 95 to 100%; under setting [2], 60 to 74%; under setting [3], 75 to 84%; under setting [4], 95 to 100%; under setting [5], 0 to 29%. The pest or weed control at 140 g/ha reads like this: under setting [6], 95 to 100%; under setting [7], 95 to 100%; under setting [8], 95 to 100%; under setting [15], 95 to 100%; under setting [9], 60 to 74%; under setting [10], 95 to 100%. The pest or weed control at 140 g/ha was 85 to 94% under setting [11], 0 to 29% under setting [12] and 75 to 84% under setting [13].
On to `COC(=O)c1nc(-c2ccc(Cl)cc2)ccc1Cl` [F82, methyl 3-chloro-6-(4-chlorophenyl)picolinate], for which the pest or weed control at 140 g/ha under setting [1] fell in the range of 0 to 29%; the pest or weed control at 140 g/ha under setting [14] is 95 to 100%; the pest or weed control at 140 g/ha under setting [2] was 0 to 29%; the pest or weed control at 140 g/ha under setting [3] lay within 60 to 74%; the pest or weed control at 140 g/ha under setting [4] was in the range of 75 to 84%; the pest or weed control at 140 g/ha under setting [5] is 75 to 84%. Besides, the pest or weed control at 140 g/ha is, setting by setting: under setting [6], 0 to 29%; under setting [7], 0 to 29%; under setting [8], 75 to 84%; under setting [15], 60 to 74%; under setting [9], 0 to 29%; under setting [11], 0 to 29%. In addition, the pest or weed control at 140 g/ha under setting [12] lay within 30 to 44%.
